The record followed here is patent EP0014295B1, “Benzodioxan derivatives, process for their preparation and their therapeutical applications” (Bouchara, Emile Dr., priority 1979, dated 1980).

The structures appear in SMILES notation.

In data set [1] the test system is pression artérielle de l'animal hypertendu non anesthésié. Put plainly: Effect on arterial pressure of the non-anaesthetised hypertensive animal, oral (rat). It is filed as in vivo. The text has this:
(§1) b) Effet sur la pression artérielle de l'animal hypertendu non anesthésié.
(§2) L'étude a été conduite chez le rat et chez le chien. On a utilisé, d'une part, des animaux (rats) présentant une hypertension expérimentale induite par ligature de l'aorte abdominale entre les deux artères rénales et, d'autre part, des animaux (rats et chiens) porteurs d'hypertension spontanée.
(§3) Le composé de l'exemple 2 a été administré par voie orale soit en prise unique pour connaître la cinétique d'action du produit, soit en traitement prolongé.

Data set [2] shares this test system. The data set is described as follows: Effect on arterial pressure of the non-anaesthetised hypertensive animal, oral (dog). It is filed as in vivo, chien.
Text: as §1, §2, §3

The test system of the next data set is système nerveux central. The data set is described as follows: Effects on the central nervous system, oral. Conditions: souris, voie orale, doses provoquant une activité antihypertensive chez le rat. It is filed as in vivo. The text has this: Ces effets centraux sont peut-être directement liés à l'action hypotensive
Data set [3] concerns pression artérielle de l'animal normotendu anesthésié. The data set is described as follows: Effect on arterial pressure of the anaesthetised normotensive animal, intravenous (rat). It is filed as in vivo. Particulars: voie intraveineuse. The text has this: (§4) a) Effet sur la pression artérielle de l'animal normotendu anesthésié.
(§5) L'étude a été conduite chez le rat, le lapin et le chien. Le composé de l'exemple 2 a été administré par voie intraveineuse. Les différents paramètres enregistrés ont été les pressions artérielles systoliques, diastoliques et moyennes, la fréquence cardiaque, la vitesse d'éjection systolique (dp/dt). La force de contraction cardiaque, les débits artériel et veineux ont été enregistrés chez le chien uniquement.

A short description of another data set: Acute toxicity, oral. Particulars: mouse, in vivo, souris, per os, read-out: Dose léthale 50 approchée mg/kg per os. The text has this: La toxicité a été déterminée chez la souris par voie orale. Les résultats sont donnés dans le tableau III.
In data set [4] the test system is pression artérielle de l'animal normotendu anesthésié. Put plainly: Effect on arterial pressure of the anaesthetised normotensive animal, intravenous (dog). It is filed as in vivo. Particulars: chien normotendu anesthésié, voie intraveineuse.
Text: as §4, §5

The next data set has as its system rats. Put plainly: Chronic toxicity, mixed with food for 45 days. It is filed as in vivo. Particulars: 75 mg/kg/jour, mélangé à la nourriture, 45 jours. The text has this: Le composé de l'exemple 2, mélangé à la nourriture, a été administré 45 jours de suite à des rats.
The test system of data set [5] is pression artérielle de l'animal normotendu anesthésié. Put plainly: Effect on arterial pressure of the anaesthetised normotensive animal, intravenous (rabbit). It is filed as in vivo. Particulars: lapin normotendu anesthésié, voie intraveineuse, dès la dose de 0,250 mg/kg; proportionnelle aux doses en intensité et en durée.
Text: as §4, §5

Setting [6] is: dès la dose de 0,250 mg/kg, proportionnelle aux doses en intensité et en durée.

As to `O=C(c1ccc(F)cc1)C1CCN(CC2COc3ccccc3O2)CC1` (centres unmarked) [Exemple 2, Chlorhydratede la 1-[(2,3-dihydro-4H-1,4-benzodioxin)-2-ylméthyl]-4-(4-fluorobenzoyl) pipéridine], the “Diminution de la pression artérielle en mm de mercure Chez le rat” value in data set [1] (10 mg/kg P.O., 10mn) came to 39±11 mm de mercure; in data set [1] (10 mg/kg P.O., 30mn) it was 45±10 mm de mercure; in data set [1] (10 mg/kg P.O., 1h) it was 33±9 mm de mercure; in data set [1] (10 mg/kg P.O., 2h) it was 20±6 mm de mercure; in data set [1] (10 mg/kg P.O., 6h) it was 6±3 mm de mercure; in data set [1] (20 mg/kg P.O., 10mn), 66±8 mm de mercure. The “Diminution de la pression artérielle en mm de mercure Chez le rat” value was determined as 63±6 mm de mercure in data set [1] (20 mg/kg P.O., 30mn); 49±7 mm de mercure in data set [1] (20 mg/kg P.O., 1h); 37±7 mm de mercure in data set [1] (20 mg/kg P.O., 2h); 29±6 mm de mercure in data set [1] (20 mg/kg P.O., 6h); 17±7 mm de mercure in data set [1] (20 mg/kg P.O., 12h); 8±4 mm de mercure in data set [1] (20 mg/kg P.O., 18h). Besides, the “Diminution de la pression artérielle en mm de mercure Chez le rat” value was 3±3 mm de mercure in data set [1] (20 mg/kg P.O., 24h); 68±6 mm de mercure in data set [1] (50 mg/kg P.O., 10mn); 68±5 mm de mercure in data set [1] (50 mg/kg P.O., 30mn); 52±6 mm de mercure in data set [1] (50 mg/kg P.O., 1h); 38±7 mm de mercure in data set [1] (50 mg/kg P.O., 2h); 32±8 mm de mercure in data set [1] (50 mg/kg P.O., 6h). In addition, the “Diminution de la pression artérielle en mm de mercure Chez le rat” value in data set [1] (50 mg/kg P.O., 12h) is 16±7 mm de mercure; in data set [1] (50 mg/kg P.O., 18h), 8±5 mm de mercure; in data set [1] (50 mg/kg P.O., 24h), 5±5 mm de mercure. The action antihypertensive result in data set [1] (rat hypertendu, voie orale, prise unique ou traitement prolongé, augmentant avec les doses jusqu'à un plafond) is reported as “action antihypertensive nette, prolongée”; in data set [2] (chien hypertendu, voie orale, prise unique ou traitement prolongé, augmentant avec les doses jusqu'à un plafond) it was “action antihypertensive nette, prolongée”. Also, the “Diminution de la pression artérielle en mm de mercure Chez le chien” value was found to be 10±4 mm de mercure in data set [2] (10 mg/kg P.O., 20mn); 10±4 mm de mercure in data set [2] (10 mg/kg P.O., 40mn); 18±3 mm de mercure in data set [2] (10 mg/kg P.O., 1h); 11±1 mm de mercure in data set [2] (10 mg/kg P.O., 2h); 4±3 mm de mercure in data set [2] (10 mg/kg P.O., 5h); 1±2 mm de mercure in data set [2] (10 mg/kg P.O., 7h). The “Diminution de la pression artérielle en mm de mercure Chez le chien” value worked out at 0±1 mm de mercure in data set [2] (10 mg/kg P.O., 24h); 12±4 mm de mercure in data set [2] (20 mg/kg P.O., 20mn); 26±3 mm de mercure in data set [2] (20 mg/kg P.O., 40mn); 38±2 mm de mercure in data set [2] (20 mg/kg P.O., 1h); 37±3 mm de mercure in data set [2] (20 mg/kg P.O., 2h); 18±7 mm de mercure in data set [2] (20 mg/kg P.O., 5h). The “Diminution de la pression artérielle en mm de mercure Chez le chien” value in data set [2] (20 mg/kg P.O., 7h) is given as 8±1 mm de mercure; in data set [2] (20 mg/kg P.O., 24h), 2±3 mm de mercure; in data set [2] (50 mg/kg P.O., 20mn) it was 21±9 mm de mercure; in data set [2] (50 mg/kg P.O., 40mn), 31±6 mm de mercure; in data set [2] (50 mg/kg P.O., 1h), 40±8 mm de mercure; in data set [2] (50 mg/kg P.O., 2h), 46±3 mm de mercure. The “Diminution de la pression artérielle en mm de mercure Chez le chien” value in data set [2] (50 mg/kg P.O., 5h) amounted to 28±8 mm de mercure; in data set [2] (50 mg/kg P.O., 7h), 22±6 mm de mercure; in data set [2] (50 mg/kg P.O., 24h), 1±2 mm de mercure. Also, the “effet antihypertenseur après arrêt du traitement” value in data set [2] (chien, après arrêt du traitement, retour progressif à la normale) was “persistance de l'effat antihypertenseur”. The agressivité result with système nerveux central is “diminution”. Also, in the data set with système nerveux central, the “sommeil expérimental” value is listed as “potentialisation”. Moreover, the sédation result in the data set with système nerveux central is “sédation générale”. In addition, the fréquence cardiaque result in data set [3] is listed as “bradycardie”. The “pression artérielle” value in data set [3] (setting [6]), in data set [4] (setting [6]) and in data set [5] was “chute tensionnelle systo- diastolique très rapide” throughout. Moreover, in “Acute toxicity, oral”, the LD50 is 880 mg/kg. Besides, the “dp/dt (vitesse d'éjection systolique)” value in data set [4] (parallèlement à l'hypotension) is given as “augmentation”. Also, the “débits artériel et veineux” value in data set [4] (parallèlement à l'hypotension) was “augmentation”. Further, in data set [4] (parallèlement à l'hypotension), the “force de contraction cardiaque” value was “augmentation”. Further, the “anomalie clinique, hématologique, anatomique” value with rats was “aucune anomalie ni clinique, ni hématologique, ni anatomique”. Besides, the “taux des triglycérides” value in the data set on rats was “chute nette et isolée”.

`COc1ccc(C(=O)C2CCN(CC3COc4ccccc4O3)CC2)cc1` (centres unmarked) [Exemple 4, Fumaratede la 1-[(2,3-dihydro-4H-1,4-benzodioxin)-2-ylméthyl]-4-(4-méthoxybenzoyl) pipéridine]: the LD50 in the data set “Acute toxicity, oral” turned out to be 364 mg/kg.

Regarding `O=C(c1ccc(Cl)cc1)C1CCN(CC2COc3ccccc3O2)CC1` (centres unmarked) [Exemple 6, Chlorhydratede la 1-[(2,3-dihydro-4H-1 ,4-benzodioxine)-2-ylméthyl]-4-(4-chlorobenzoyl) pipéridine], the LD50 in “Acute toxicity, oral” worked out at 880 mg/kg.

For `O=C(c1ccc(O)cc1)C1CCN(CC2COc3ccccc3O2)CC1` (centres unmarked) [Exemple 7, 1-[(2,3-Dihydro-4H-1,4-benzodioxin)-2-ylméthyl]-4-(4-hydroxy-benzoyl) pipéridine], the LD50 in the data set “Acute toxicity, oral” was determined as 440 mg/kg.

In the case of `O=C(Oc1ccc(C(=O)C2CCN(CC3COc4ccccc4O3)CC2)cc1)c1cccnc1` (centres unmarked) [Exemple 8, Nicotinatede la 1-[(2,3-dihydro-4H-1,4-benzodioxin)-2-ylméthyl]-4-(4-hydroxybenzoyl) pipéridine], the LD50 in “Acute toxicity, oral” is over 3200 mg/kg.

As for `O=C(c1ccccc1)C1CCN(CC2COc3ccccc3O2)CC1` (centres unmarked) [Exemple 9, Ghlorhydratede la 1-[(2,3-dihydro-4H-1,4-benzodioxin)-2-ylméthyl]-4-benzoyl pipéridine], in the data set “Acute toxicity, oral”, the LD50 came to 2400 mg/kg.

Regarding `Cc1ccc(C(=O)C2CCN(CC3COc4ccccc4O3)CC2)cc1` (centres unmarked) [Exemple 10], the LD50 in the data set “Acute toxicity, oral” is 1460 mg/kg.

Turning to `CCc1ccc(C(=O)C2CCN(CC3COc4ccccc4O3)CC2)cc1` (centres unmarked) [Exemple 11, Chlorhydratede la 1-[(2,3-dihydro-4H-1,4-benzodioxin)-2-ylméthyl]-4-(4-éthylbenzoyl) pipéridine], in “Acute toxicity, oral”, the LD50 is 1200 mg/kg.
